Earlier results on two compounds are cited in paper PMC8955938, “c-Myc Protein Level Affected by Unsymmetrical Bisacridines Influences Apoptosis and Senescence Induced in HCT116 Colorectal and H460 Lung Cancer Cells” (International Journal of Molecular Sciences, 2022).

pIC50: −log10 of the molar value.

Details of the series: method as in PMID 26485768, PMID 17009029, PMID 21805041, PMID 30894570. The following applies: established in similar conditions; irinotecan colon cancer treatment, cisplatin lung cancer treatment; cited from earlier work.

In the case of `CCc1c2c(nc3ccc(OC(=O)N4CCC(N5CCCCC5)CC4)cc13)-c1cc3c(c(=O)n1C2)COC(=O)[C@]3(O)CC` [irinotecan], the pIC50 is roughly 5.30. Consider `N.N.[Cl][Pt][Cl]` [cisplatin], for which the pIC50 is roughly 5.30.
